Experimental data published in ChEMBL document CHEMBL2074461, “Functional characteristics and tissue distribution pattern of organic cation transporter 2 (OCTN2), an organic cation/carnitine transporter” (J Pharmacol Exp Ther, 1999).

Key:
[1] = biological target: T1, OCTN2 (organic cation/carnitine transporter 2) (Homo sapiens, UniProt O76082); assay: in vitro; details: HRPE cells expressing OCTN2, probe carnitine (0.025 uM)
T1 sequence (O76082 whole entry): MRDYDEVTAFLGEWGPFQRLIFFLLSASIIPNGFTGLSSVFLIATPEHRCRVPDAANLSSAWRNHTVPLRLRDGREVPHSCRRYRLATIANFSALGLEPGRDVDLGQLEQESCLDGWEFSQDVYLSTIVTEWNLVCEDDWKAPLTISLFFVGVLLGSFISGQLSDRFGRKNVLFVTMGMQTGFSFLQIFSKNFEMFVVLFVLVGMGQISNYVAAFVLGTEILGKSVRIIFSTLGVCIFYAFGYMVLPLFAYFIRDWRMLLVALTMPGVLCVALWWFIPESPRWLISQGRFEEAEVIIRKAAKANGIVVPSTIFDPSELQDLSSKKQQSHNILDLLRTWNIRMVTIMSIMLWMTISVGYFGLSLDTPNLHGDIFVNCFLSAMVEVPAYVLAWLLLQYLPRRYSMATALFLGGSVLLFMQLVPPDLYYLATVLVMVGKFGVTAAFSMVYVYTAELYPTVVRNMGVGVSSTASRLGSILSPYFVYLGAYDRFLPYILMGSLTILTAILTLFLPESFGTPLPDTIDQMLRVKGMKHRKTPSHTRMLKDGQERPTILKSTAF
Description: (§3) TP_TRANSPORTER: inhibition of Carnitine uptake (Carnitine: 0.025 uM, TEA: 2000 uM) in OCTN2-expressing HRPE cells

[2] = biological target: T2, OCTN2 (organic cation/carnitine transporter 2) (Rattus norvegicus, UniProt O70594); assay: in vitro; details: human, HRPE cells expressing OCTN2, probe carnitine (0.025 uM)
T2 sequence (O70594 whole entry): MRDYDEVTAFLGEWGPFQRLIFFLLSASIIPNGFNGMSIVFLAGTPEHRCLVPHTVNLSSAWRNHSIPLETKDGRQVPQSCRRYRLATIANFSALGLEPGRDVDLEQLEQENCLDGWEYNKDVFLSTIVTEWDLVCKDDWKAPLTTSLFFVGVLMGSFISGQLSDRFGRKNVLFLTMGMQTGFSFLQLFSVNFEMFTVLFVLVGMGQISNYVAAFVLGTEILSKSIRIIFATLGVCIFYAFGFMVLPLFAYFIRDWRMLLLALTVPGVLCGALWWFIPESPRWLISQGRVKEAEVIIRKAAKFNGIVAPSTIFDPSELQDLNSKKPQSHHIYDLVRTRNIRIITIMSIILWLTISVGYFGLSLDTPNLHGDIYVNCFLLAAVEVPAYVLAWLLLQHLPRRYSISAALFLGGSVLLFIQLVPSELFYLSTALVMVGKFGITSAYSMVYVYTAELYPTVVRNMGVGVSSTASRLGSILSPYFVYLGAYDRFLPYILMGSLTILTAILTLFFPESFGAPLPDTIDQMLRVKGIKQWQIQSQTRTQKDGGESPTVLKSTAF
Description: as §3

[3] = biological target: T3, Organic cation/carnitine transporter 2 (Rattus norvegicus, UniProt O70594); assay: TP_TRANSPORTER: inhibition of TEA uptake (TEA: 20 uM, Serotonin: 2500 uM) in OCTN2-expressing HRPE cells; assay type: functional, cell-based; details: human
T3 sequence (O70594 whole entry): T2 sequence (O70594 whole entry)

[4] = biological target: T3, Organic cation/carnitine transporter 2; assay: TP_TRANSPORTER: inhibition of TEA uptake (TEA: 20 uM, Norepinephrine: 2500 uM) in OCTN2-expressing HRPE cells; assay type: functional, cell-based; details: human
[5] = biological target: T4, Organic cation/carnitine transporter 2 (Homo sapiens, UniProt O76082); assay: (§1) TP_TRANSPORTER: uptake in OCTN2-expressing HRPE cells; assay type: functional, cell-based
T4 sequence (O76082 whole entry): T1 sequence (O76082 whole entry)

[6] = biological target: T3, Organic cation/carnitine transporter 2; assay: as §1; assay type: functional, cell-based; details: human
[7] = biological target: T3, Organic cation/carnitine transporter 2; assay: TP_TRANSPORTER: inhibition of TEA uptake (TEA: 20 uM, MPTP: 2500 uM) in OCTN2-expressing HRPE cells; assay type: functional, cell-based; details: human
[8] = biological target: T1, OCTN2 (organic cation/carnitine transporter 2); assay: (§2) TP_TRANSPORTER: inhibition of Carnitine uptake (Carnitine: 0.025 uM, MPTP: 2000 uM) in OCTN2-expressing HRPE cells; assay type: functional, cell-based; set-up: scale not given: the % may be the effect or the level left; details: HRPE cells expressing OCTN2, probe carnitine (0.025 uM), read-out: Activity
[9] = biological target: T2, OCTN2 (organic cation/carnitine transporter 2); assay: as §2; assay type: functional, cell-based; set-up: scale not given: the % may be the effect or the level left; details: human, HRPE cells expressing OCTN2, probe carnitine (0.025 uM); read-out: Activity
[10] = biological target: T1, OCTN2 (organic cation/carnitine transporter 2); assay: TP_TRANSPORTER: inhibition of Carnitine uptake (Carnitine: 0.025 uM, Desipramine: 500 uM) in OCTN2-expressing HRPE cells; assay type: functional, cell-based; set-up: scale not given: the % may be the effect or the level left; details: HRPE cells expressing OCTN2, probe carnitine (0.025 uM), read-out: Activity
[11] = biological target: T3, Organic cation/carnitine transporter 2; assay: TP_TRANSPORTER: inhibition of TEA uptake (TEA: 20 uM, Desipramine: 2500 uM) in OCTN2-expressing HRPE cells; assay type: functional, cell-based; details: human
[12] = biological target: T3, Organic cation/carnitine transporter 2; assay: TP_TRANSPORTER: inhibition of TEA uptake (TEA: 20 uM, Guanidine: 2500 uM) in OCTN2-expressing HRPE cells; assay type: functional, cell-based; details: human
[13] = biological target: T3, Organic cation/carnitine transporter 2; assay: TP_TRANSPORTER: inhibition of TEA uptake (TEA: 20 uM, MPP+: 2500 uM) in OCTN2-expressing HRPE cells; assay type: functional, cell-based; details: human
[14] = biological target: T1, OCTN2 (organic cation/carnitine transporter 2); assay: in vitro; details: HRPE cells expressing OCTN2, probe carnitine (0.025 uM); remark: listed apart in the source
Description: (§4) TP_TRANSPORTER: inhibition of Carnitine uptake (Carnitine: 0.025 uM, Choline: 2000 uM) in OCTN2-expressing HRPE cells

[15] = biological target: T2, OCTN2 (organic cation/carnitine transporter 2); assay: in vitro; details: human, HRPE cells expressing OCTN2, probe carnitine (0.025 uM); remark: listed apart in the source
Description: as §4

[16] = biological target: T3, Organic cation/carnitine transporter 2; assay: TP_TRANSPORTER: inhibition of TEA uptake (TEA: 20 uM, Procainamide: 2500 uM) in OCTN2-expressing HRPE cells; assay type: functional, cell-based; details: human
[17] = biological target: T2, OCTN2 (organic cation/carnitine transporter 2); assay: TP_TRANSPORTER: inhibition of Carnitine uptake (Carnitine: 0.025 uM, Betaine: 500 uM) in OCTN2-expressing HRPE cells; assay type: functional, cell-based; set-up: scale not given: the % may be the effect or the level left; details: human, HRPE cells expressing OCTN2, probe carnitine (0.025 uM); read-out: Activity
[18] = biological target: T3, Organic cation/carnitine transporter 2; assay: TP_TRANSPORTER: inhibition of TEA uptake (TEA: 20 uM, TMA: 2500 uM) in OCTN2-expressing HRPE cells; assay type: functional, cell-based; details: human
[19] = biological target: T3, Organic cation/carnitine transporter 2; assay: TP_TRANSPORTER: inhibition of TEA uptake (TEA: 20 uM, Methanphetamine: 2500 uM) in OCTN2-expressing HRPE cells; assay type: functional, cell-based; details: human
[20] = biological target: T3, Organic cation/carnitine transporter 2; assay: TP_TRANSPORTER: inhibition of TEA uptake (TEA: 20 uM, Amphetamine: 2500 uM) in OCTN2-expressing HRPE cells; assay type: functional, cell-based; details: human
[21] = biological target: T2, OCTN2 (organic cation/carnitine transporter 2); assay: in vitro; details: human, HRPE cells expressing OCTN2, probe carnitine (0.025 uM); remark: listed apart in the source
Description: TP_TRANSPORTER: inhibition of Carnitine uptake (Carnitine: 0.025 uM, Cimetidine: 2000 uM) in OCTN2-expressing HRPE cells

[22] = biological target: T2, OCTN2 (organic cation/carnitine transporter 2); assay: TP_TRANSPORTER: inhibition of Carnitine uptake (Carnitine: 0.025 uM, Acetyl-L-carnitine: 500 uM) in OCTN2-expressing HRPE cells; assay type: functional, cell-based; set-up: scale not given: the % may be the effect or the level left; details: human, HRPE cells expressing OCTN2, probe carnitine (0.025 uM); read-out: Activity
[23] = biological target: T3, Organic cation/carnitine transporter 2; assay: TP_TRANSPORTER: inhibition of TEA uptake (TEA: 20 uM, THA: 2500 uM) in OCTN2-expressing HRPE cells; assay type: functional, cell-based; details: human
[24] = substrate: C[N+](C)(C)CC(O)CC(=O)[O-]; assay: as §1; assay type: functional, cell-based
[25] = substrate: CC[N+](CC)(CC)CC; assay: cells, lysate or membranes named

**Q.** For `CC[N+](CC)(CC)CC` [TETRYLAMMONIUM], which activity at 2000 µM [1] is on record?
**A.** 40%

**Q.** What about the activity at 2000 µM [2] of the same molecule?
**A.** 4%

**Q.** How did the Activity [3] turn out when `NCCc1c[nH]c2ccc(O)cc12` [SEROTONIN] was run?
**A.** is not an inhibitor [-]

**Q.** With `NC[C@H](O)c1ccc(O)c(O)c1` [NOREPINEPHRINE] as the molecule, how does the Activity [4] read?
**A.** is not an inhibitor [-]

**Q.** What does the source list for `CCC(=O)OC(CC(=O)[O-])C[N+](C)(C)C` (stereo unspecified) [Propionyl-Carnitine]?
**A.** Activity [5]: substrate [+]; Activity [6]: substrate [+]

**Q.** With `CN1CC=C(c2ccccc2)CC1` as the molecule, how does the Inhibition [7] read?
**A.** inhibitor [50-75 % inhibition]

**Q.** What about the activity at 2000 µM [8] of the same molecule?
**A.** 47%

**Q.** And the activity at 2000 µM [9]?
**A.** 4%

**Q.** `CNCCCN1c2ccccc2CCc2ccccc21` [DESIPRAMINE] was tested. Which activity at 500 µM [10] did it give?
**A.** 0%

**Q.** What about the Inhibition [11] of the same molecule?
**A.** inhibitor [90-95 % inhibition]

**Q.** `N=C(N)N` [GUANIDINE] was tested. Which Activity [12] did it give?
**A.** is not an inhibitor [-]

**Q.** `C[n+]1ccc(-c2ccccc2)cc1` was tested. Which Inhibition [13] did it give?
**A.** inhibitor [50-75 % inhibition]

**Q.** What does the source list for `C[N+](C)(C)CCO` [CHOLINE]?
**A.** activity at 2000 µM [14]: 82%; activity at 2000 µM [15]: 24%

**Q.** How did the Inhibition [16] turn out when `CCN(CC)CCNC(=O)c1ccc(N)cc1` [PROCAINAMIDE] was run?
**A.** inhibitor [50-75 % inhibition]

**Q.** For `C[N+](C)(C)CC(=O)O` [BETAINE], which activity at 500 µM [17] is on record?
**A.** 51%

**Q.** `C[N+](C)(C)C.[Cl-]` [TETRAMETHYLAMMONIUM] was tested. Which Inhibition [18] did it give?
**A.** inhibitor [20-30 % inhibition]

**Q.** `CN[C@@H](C)Cc1ccccc1` [METHAMPHETAMINE] was tested. Which Inhibition [19] did it give?
**A.** inhibitor [20-30 % inhibition]

**Q.** `CC(N)Cc1ccccc1` (stereo unspecified) [AMPHETAMINE] was tested. Which Inhibition [20] did it give?
**A.** inhibitor [20-30 % inhibition]

**Q.** How did the activity at 2000 µM [21] turn out when `CN/C(=N/CCSCc1nc[nH]c1C)NC#N` [CIMETIDINE] was run?
**A.** 29%

**Q.** Which results are given for `CC(=O)O[C@H](CC(=O)[O-])C[N+](C)(C)C` [ACETYLCARNITINE]?
**A.** Activity [6]: substrate [+]; activity at 500 µM [22]: 1%

**Q.** Which Inhibition [23] does the source give for `CCCCCC[N+](CCCCCC)(CCCCCC)CCCCCC` [TETRAHEXYLAMMONIUM] here?
**A.** inhibitor [90-95 % inhibition]

B1: Organic cation/carnitine transporter 2 (Rattus norvegicus) (protein)
chain: T2 sequence (O70594 whole entry)
**Q.** Which results are given for B1?
**A.** Km [24]: 14.8 µM; Km [25]: 63 µM
